According to PMC5495814, “The impact of the butterfly effect on human parainfluenza virus haemagglutinin-neuraminidase inhibitor design” (Scientific Reports, 2017):
“And” between values parts separate entries of the source, which are not always exact repeats. Equal values may be shown once. Read-outs that look alike come from different tables or passages of the source.

Tests used:
[1] = system: hPIV-3; experiment: Virus growth inhibition by in situ ELISA in A549 cells
[2] = biological target: T1, human neuraminidase 2 (hNeu2) (Homo sapiens, UniProt Q9Y3R4); experiment: NI assay with recombinant human neuraminidase 2; type: biochemical; conditions: inhibitors tested 0.001 μM to 1000 μM, 0.5 mM MUN, pH 5.5
T1 construct: GST (own knowledge: pGEX-2T encodes an N-terminal GST with a thrombin site); made in house; host or cells: E. coli
Protocol: Finally, all inhibitors were assessed for cytotoxicity to human A549 cells with no toxicity observed at a concentration of 300 µM (data not shown). In addition, we investigated[9] the capacity of the synthesized inhibitors 5–8 to inhibit human neuraminidase 2 (hNeu2) compared with the well-described neuraminidase inhibitor Neu5Ac2en (2)[28].
The NI assay with human Neuraminidase 2 (hNeu2) was performed as previously described, using 60 ng of purified hNeu2 enzyme in reaction buffer/hNeu2 (NaOAc 50 mM, pH 5.5), supplemented with 10 μg BSA and 0.5 mM MUN per reaction. All inhibitors were tested in duplicate in the concentration range from 0.001 μM to 1000 μM. After 10 min of incubation with agitation (1000 rpm) at 37 °C, the enzymatic reaction was stopped with glycine buffer (glycine 0.25 M, pH 10.4) and the product fluorescence was measured in relative fluorescence units (RFU) using a Victor 3 multilabel reader (PerkinElmer, Waltham, MA). Controls were conducted with MUN and purified hNeu2, the enzymatic reaction was stopped at t = 0 for the negative control and at t = 10 min for the positive control.
The obtained data were normalised by background (negative control RFU) subtraction and processed data were analyzed with GraphPadPrism 4 (GraphPad Software Inc., La Jolla, CA) to calculate IC50 values. The concentration of inhibitor that reduced the neuraminidase activity by 50% compared to those of a non-treated virus/protein suspension was considered as the NI IC50 value.

[3] = biological target: hPIV-3 HN haemagglutinin function (Human parainfluenza 3 virus, UniProt P08492); experiment: cell-based; parameters: species or system human parainfluenza virus type 3 (hPIV-3); conditions: HI IC50, human red blood cells, 4 °C, 90 min
Protocol: The HN inhibitors were assessed in haemagglutination inhibition assays using human red blood cells (RBC) as previously described[10] with minor modifications. The lowest final concentration of hPIV-3 that leads to a complete agglutination of human-RBC at 4 °C is considered as 1 HAU. 4 haemagglutination units (HAU) of hPIV-3 (final 1 HAU per well) were pre-mixed with inhibitors of each tested concentration (4X dilution in PBS) on ice. Next, an equivalent volume of ice-cold 1% human-RBC in PBS was added to each well of the inhibitor/virus pre-mixture and the plate was then incubated for 90 min at 4 °C before determining the extent of haemagglutination inhibition.

[4] = biological target: hPIV-3 HN neuraminidase function (Human parainfluenza 3 virus, UniProt P08492); experiment: biochemical; parameters: species or system human parainfluenza virus type 3 (hPIV-3, strain C-243); conditions: for IC50: NI IC50, purified hPIV-3, MUN substrate, pH 4.6, means of 3 independent experiments
[5] = biological target: soluble hPIV-3 HN; parameters: method as in PMID 23740997; conditions: in complex with soluble hPIV-3 HN; cited from earlier work
[6] = Human respirovirus 3, A549, in Homo sapiens, read-out: Virus growth inhibition IC50, in situ ELISA, human cell line A549, 36–40 h
[7] = read-out: Virus growth inhibition IC50, in situ ELISA, human cell line A549, 36–40 h

T1 sequence (Q9Y3R4 whole entry): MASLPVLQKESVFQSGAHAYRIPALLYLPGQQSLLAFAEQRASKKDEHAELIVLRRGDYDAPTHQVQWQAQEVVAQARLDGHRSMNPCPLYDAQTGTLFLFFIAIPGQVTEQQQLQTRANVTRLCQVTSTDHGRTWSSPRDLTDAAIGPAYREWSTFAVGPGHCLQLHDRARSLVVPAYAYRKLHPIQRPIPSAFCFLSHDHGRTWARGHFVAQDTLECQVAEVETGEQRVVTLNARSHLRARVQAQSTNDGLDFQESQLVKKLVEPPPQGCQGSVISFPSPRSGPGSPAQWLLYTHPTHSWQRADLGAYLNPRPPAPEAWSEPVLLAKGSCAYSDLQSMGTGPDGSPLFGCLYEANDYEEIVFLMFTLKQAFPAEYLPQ
Sequence of hPIV-3 HN haemagglutinin function (P08492 whole entry): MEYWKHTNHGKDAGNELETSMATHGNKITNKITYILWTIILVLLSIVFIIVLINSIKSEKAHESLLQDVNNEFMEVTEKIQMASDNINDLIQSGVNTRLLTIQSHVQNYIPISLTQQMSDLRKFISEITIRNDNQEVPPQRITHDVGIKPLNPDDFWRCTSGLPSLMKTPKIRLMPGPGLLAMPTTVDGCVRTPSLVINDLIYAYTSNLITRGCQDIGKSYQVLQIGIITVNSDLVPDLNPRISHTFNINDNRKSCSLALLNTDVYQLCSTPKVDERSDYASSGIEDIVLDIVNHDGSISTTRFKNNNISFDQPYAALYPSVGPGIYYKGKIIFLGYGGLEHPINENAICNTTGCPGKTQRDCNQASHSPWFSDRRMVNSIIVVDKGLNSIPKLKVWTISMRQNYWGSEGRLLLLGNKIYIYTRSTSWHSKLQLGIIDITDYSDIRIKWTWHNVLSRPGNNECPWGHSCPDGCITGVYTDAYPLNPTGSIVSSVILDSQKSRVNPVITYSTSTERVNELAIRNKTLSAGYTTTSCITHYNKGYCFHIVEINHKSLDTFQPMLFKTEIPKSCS
Sequence of hPIV-3 HN neuraminidase function (P08492 whole entry): as above

Compound	IC50 [1, 6]	IC50 [1, 7]	Inhibition of hNeu2 [2]	IC50 [3]	IC50 [4]	Kd [5]	increase in potency (NI) compared to Neu2en analogue 6 ([4]; NI IC50 of 8 versus 6)
CC(C)C(=O)N[C@H]1[C@H]([C@H](O)[C@H](O)CO)OC(C(=O)O)=C[C@@H]1n1cc(-c2ccccc2)nn1 [Inhibitor 5, reference compound]	11.2 ± 0.9 µM	11.2 µM	No inhibition				
CC(C)C(=O)N[C@H]1[C@H]([C@H](O)[C@H](O)CO)O[C@@](F)(C(=O)O)[C@@H](F)[C@@H]1n1cc(-c2ccccc2)nn1 [Inhibitor 7]	40.1 ± 7 µM	40.1 µM	No inhibition	775 µM	55.3 µM		
Neu5Acα2–3 Galβ1–4GlcNAcβ1–3 Galβ1–4GlcNAc [3′SiaDiLN]						4300 µM	
COCc1cn([C@H]2C=C(C(=O)O)O[C@@H]([C@H](O)[C@H](O)CO)[C@@H]2NC(=O)C(C)C)nn1 [Inhibitor 6, reference compound]	82.4 ± 7.7 µM	82.4 µM	No inhibition	3.88 µM and 3.9 µM	14.5 µM		
COCc1cn([C@@H]2[C@@H](NC(=O)C(C)C)[C@H]([C@H](O)[C@H](O)CO)O[C@@](F)(C(=O)O)[C@H]2F)nn1 [Inhibitor 8]	14.3 ± 0.3 µM	14.3 µM	No inhibition	57 µM	6.7 µM and 6.75 µM		2 fold
